Results published in patent US20260242391A1 (priority 2023, published 2026).
pEC50, pIC50: −log10 of the molar value.

Columns and labels:
HL-60 = HL-60 differentiation potency; type: cell-based; settings: Homo sapiens
in vitro = settings: human

| pEC50 (HL-60) | pIC50 (in vitro) | Structure (SMILES) | pIC50 (in vitro; HL-60 cells) |
| --- | --- | --- | --- |
| 5.51 | 4.82 | C[C@H]1[C@@H](OC[C@H]2CC[C@@H](C(=O)N[C@@H](CC(F)(F)F)C(=O)O)CC2)O[C@@H]2O[C@@]3(C)CC[C@H]4[C@H](C)CC[C@@H]1[C@@]24OO3 [Compound 256, (S)-4,4,4-trifluro-2-((1R,4R)-4-((((3R,5aS,6R,8aS, 9R,10S,12R, 12aR)-3,6,9-trimethyldeca-hydro-12H-3,12-epoxy[1,2]dioxepino[4,3-i]isochromen-10-yl)oxy)methyl)cyclohexane-1-carboxamido) butanoic acid] | – |
| 5.49 | 4.94 | C[C@H]1[C@@H](O[C@H]2C[C@@H](C(=O)N[C@H](C(=O)O)c3ccc(C(F)(F)F)cc3)C2)O[C@@H]2O[C@@]3(C)CC[C@H]4[C@H](C)CC[C@@H]1[C@@]24OO3 [Compound 257, (S)-2-(4-(trifluoromethyl)phenyl)-2-((1R,3R)-3-(((3R,5aS,6R,8aS, 9R,10S,12R, 12aR)-3,6,9-trimethyldeca-hydro-12H-3,12-epoxy[1,2]dioxepino[4,3-i]isochromen-10-yl)oxy)cyclo-butane-1-carboxamido) acetic acid] | – |
| < 4.70 | < 4.70 | C[C@H]1[C@@H](Oc2ccc(C(=O)N3[C@H](C(=O)O)C[C@@H]4C[C@@H]43)cc2)O[C@@H]2O[C@@]3(C)CC[C@H]4[C@H](C)CC[C@@H]1[C@@]24OO3 [Compound 258, (1S,3S,5S)-2-(4-(((3R,5aS,6R,8aS, 9R,10S,12R, 12aR)-3,6,9-trimethyldeca-hydro-12H-3,12-epoxy[1,2]dioxepino[4,3-i]isochromen-10-yl)oxy)benzoyl)-2-azabicyclo [3.1.0]hexane-3-carboxylic acid] | – |
| 6.37 | < 4.70 | C[C@H]1[C@H](OCC23[C@H]4[C@H]5[C@@H]2[C@H]2[C@@H]3[C@@H]4C52C(=O)O)O[C@@H]2O[C@@]3(C)CC[C@H]4[C@H](C)CC[C@@H]1[C@@]24OO3 (stereo partly drawn) [Compound 260, (2R,3R,5R,6R,7R, 8R)-4-((((3R,5aS,6R,8aS, 9R,10R,12R, 12aR)-3,6,9-trimethyldeca-hydro-12H-3,12-epoxy[1,2]dioxepino[4,3-i]isochromen-10-yl)oxy)methyl) cubane-1-carboxylic acid] | – |
| > 8.00 | 6.44 | CC(C)[C@H](Oc1ccc(O[C@H]2O[C@@H]3O[C@@]4(C)CC[C@H]5[C@H](C)CC[C@@H]([C@H]2C)[C@@]35OO4)cc1)C(=O)O [Compound 261, (S)-3-methyl-2-(4-(((3R,5aS,6R,8aS, 9R,10S,12R, 12aR)-3,6,9-trimethyldeca-hydro-12H-3,12-epoxy[1,2]dioxepino[4,3-i]isochromen-10-yl)oxy)phenoxy) butanoic acid] | – |
| 7.31 | 5.37 | C[C@H]1[C@@H](Oc2ccc(OC3(C(=O)O)CC3)cc2)O[C@@H]2O[C@@]3(C)CC[C@H]4[C@H](C)CC[C@@H]1[C@@]24OO3 [Compound 268, 1-(4-(((3R,5aS,6R,8aS, 9R,10S,12R, 12aR)-3,6,9-trimethyldeca-hydro-12H-3,12-epoxy[1,2]dioxepino[4,3-i]isochromen-10-yl)oxy)phenoxy) cyclopropane-1-carboxylic acid] | – |
| 6.84 | 5.13 | C[C@H]1[C@@H](OC/C=C/[C@@H]2CCC[C@H](C(=O)O)C2)O[C@@H]2O[C@@]3(C)CC[C@H]4[C@H](C)CC[C@@H]1[C@@]24OO3 [Compound 269, (1S,3R)-3-((E)-3-(((3R,5aS,6R,8aS, 9R,10S,12R, 12aR)-3,6,9-trimethyldeca-hydro-12H-3,12-epoxy[1,2]dioxepino[4,3-i]isochromen-10-yl)oxy)prop-1-en-1-yl) cyclohexane-1-carboxylic acid] | – |
| 7.54 | 6.15 | C[C@H]1[C@@H](Oc2ccc(C(C)(C)C(=O)O)cc2F)O[C@@H]2O[C@@]3(C)CC[C@H]4[C@H](C)CC[C@@H]1[C@@]24OO3 [Compound 270, 2-(3-fluoro-4-(((3R,5aS,6R,8aS, 9R,10S,12R, 12aR)-3,6,9-trimethyldeca-hydro-12H-3,12-epoxy[1,2]dioxepino[4,3-i]isochromen-10-yl)oxy)phenyl)-2-methyl-propanoic acid] | – |
| < 4.70 | < 4.70 | C[C@H]1[C@@H](OCc2ccc(C(=O)N3C[C@@H](F)C[C@H]3C(=O)O)cc2)O[C@@H]2O[C@@]3(C)CC[C@H]4[C@H](C)CC[C@@H]1[C@@]24OO3 [Compound 276, (2S,4S)-4-fluoro-1-(4-((((3R,5aS,6R,8aS, 9R,10S,12R, 12aR)-3,6,9-trimethyldeca-hydro-12H-3,12-epoxy[1,2]dioxepino[4,3-i]isochromen-10-yl)oxy)methyl)benzoyl) pyrrolidine-2-carboxylic acid] | – |
| 5.75 | < 4.70 | C[C@H]1[C@@H](OCc2ccc(C(=O)N3CCC(C(=O)O)CC3)cc2)O[C@@H]2O[C@@]3(C)CC[C@H]4[C@H](C)CC[C@@H]1[C@@]24OO3 [Compound 277, 1-(4-((((3R,5aS,6R,8aS, 9R,10S,12R, 12aR)-3,6,9-trimethyldeca-hydro-12H-3,12-epoxy[1,2]dioxepino[4,3-i]isochromen-10-yl)oxy)methyl)benzoyl) piperidine-4-carboxylic acid] | – |

Second part, the compound before the results:

| Structure (SMILES) | pEC50 (HL-60) | pIC50 (in vitro) | pIC50 (in vitro; HL-60 cells) |
| --- | --- | --- | --- |
| C[C@H]1[C@@H](O[C@H]2CC[C@@H](C(=O)N3CC(C(=O)O)C3)CC2)O[C@@H]2O[C@@]3(C)CC[C@H]4[C@H](C)CC[C@@H]1[C@@]24OO3 [Compound 259, 1-((1R,4s)-4-(((3R,5aS,6R,8aS, 9R,10S,12R, 12aR)-3,6,9-trimethyldeca-hydro-12H-3,12-epoxy[1,2]dioxepino[4,3-i]isochromen-10-yl)oxy)cyclo-hexane-1-carbonyl) azetidine-3-carboxylic acid] | 6.76 | – | 4.97 |
| C[C@H]1[C@@H](O[C@H]2CC[C@@H](C(=O)NC3(C(=O)O)CC3)CC2)O[C@@H]2O[C@@]3(C)CC[C@H]4[C@H](C)CC[C@@H]1[C@@]24OO3 [Compound 262, 1-((1R,4s)-4-(((3R,5aS,6R,8aS, 9R,10S,12R, 12aR)-3,6,9-trimethyldeca-hydro-12H-3,12-epoxy[1,2]dioxepino[4,3-i]isochromen-10-yl)oxy)cyclohexane-1-carboxamido) cyclopropane-1-carboxylic acid] | 4.94 | < 4.70 | – |
| C[C@H]1[C@@H](OC[C@H]2CC[C@@H](C(=O)N3CC[C@@H](C(=O)O)C3)CC2)O[C@@H]2O[C@@]3(C)CC[C@H]4[C@H](C)CC[C@@H]1[C@@]24OO3 [Compound 263, (R)-1-((1R,4S)-4-((((3R,5aS,6R,8aS, 9R,10S,12R, 12aR)-3,6,9-trimethyldeca-hydro-12H-3,12-epoxy[1,2]dioxepino[4,3-i]isochromen-10-yl)oxy)methyl)cyclohexane-1-carbonyl) pyrrolidine-3-carboxylic acid] | 6.43 | 4.77 | – |
| C[C@H]1[C@@H](Oc2ccc(Cn3cc(C(=O)O)nn3)c(Br)c2)O[C@@H]2O[C@@]3(C)CC[C@H]4[C@H](C)CC[C@@H]1[C@@]24OO3 [Compound 264, 1-(2-bromo-4-(((3R,5aS,6R,8aS,9R,10S,12R, 12aR)-3,6,9-trimethyldeca-hydro-12H-3,12-epoxy[1,2]dioxepino[4,3-i]isochromen-10-yl)oxy)benzyl)-1H-1,2,3-triazole-4-carboxylic acid] | 6.80 | 5.84 | – |
| C[C@H]1[C@@H](Oc2ccc(C(=O)NC3(C(=O)O)COC3)cc2Cl)O[C@@H]2O[C@@]3(C)CC[C@H]4[C@H](C)CC[C@@H]1[C@@]24OO3 [Compound 265, 3-(3-chloro-4-(((3R,5aS,6R,8aS, 9R,10S,12R, 12aR)-3,6,9-trimethyldeca-hydro-12H-3,12-epoxy[1,2]dioxepino[4,3-i]isochromen-10-yl)oxy)benzamido) oxetane-3-carboxylic acid] | 5.19 | 4.77 | – |
| CC(C)C(C(=O)O)c1ccc(O[C@H]2O[C@@H]3O[C@@]4(C)CC[C@H]5[C@H](C)CC[C@@H]([C@H]2C)[C@@]35OO4)c(F)c1 (stereo partly drawn) [Compound 266, 2-(3-fluoro-4-(((3R,5aS,6R,8aS, 9R,10S,12R, 12aR)-3,6,9-trimethyldeca-hydro-12H-3,12-epoxy[1,2]dioxepino[4,3-i]isochromen-10-yl)oxy)phenyl)-3-methylbutanoic acid] | 7.99 | 7.22 | – |
| C[C@H]1[C@@H](OC/C=C/[C@]2(F)CC[C@H](C(=O)O)CC2)O[C@@H]2O[C@@]3(C)CC[C@H]4[C@H](C)CC[C@@H]1[C@@]24OO3 [Compound 271, (1S,4r)-4-fluoro-4-((E)-3-(((3R,5aS,6R,8aS, 9R,10S,12R, 12aR)-3,6,9-trimethyldeca-hydro-12H-3,12-epoxy[1,2]dioxepino[4,3-i]isochromen-10-yl)oxy)prop-1-en-1-yl) cyclohexane-1-carboxylic acid] | 7.03 | 4.72 | – |
| C[C@H]1[C@@H](Oc2ccc(C(=O)N(C)[C@H]3CC[C@@H](C(=O)O)C3)cc2)O[C@@H]2O[C@@]3(C)CC[C@H]4[C@H](C)CC[C@@H]1[C@@]24OO3 [Compound 272, (1R,3S)-3-(N-methyl-4-(((3R,5aS,6R,8aS, 9R,10S,12R, 12aR)-3,6,9-trimethyldeca-hydro-12H-3,12-epoxy[1,2]dioxepino[4,3-i]isochromen-10-yl)oxy)benzamido) cyclopentane-1-carboxylic acid] | 6.98 | 5.03 | – |
| C[C@H]1[C@@H](OCc2ccc(C(=O)NC34CC(C(=O)O)(C3)C4)cc2)O[C@@H]2O[C@@]3(C)CC[C@H]4[C@H](C)CC[C@@H]1[C@@]24OO3 [Compound 273, 3-(4-((((3R,5aS,6R,8aS, 9R,10S,12R, 12aR)-3,6,9-trimethyldeca-hydro-12H-3,12-epoxy[1,2]dioxepino[4,3-i]isochromen-10-yl)oxy)methyl)benzamido) bicyclo[1.1.1] pentane-1-carboxylic acid] | 5.54 | 4.71 | – |
| C[C@H]1[C@@H](OCc2ccc(C(=O)N[C@H]3CC[C@@H](C(=O)O)C3)cc2)O[C@@H]2O[C@@]3(C)CC[C@H]4[C@H](C)CC[C@@H]1[C@@]24OO3 [Compound 275, (1R,3S)-3-(4-((((3R,5aS,6R,8aS, 9R,10S,12R, 12aR)-3,6,9-trimethyldeca-hydro-12H-3,12-epoxy[1,2]dioxepino[4,3-i]isochromen-10-yl)oxy)methyl)benzamido) cyclopentane-1-carboxylic acid] | 6.62 | 5.17 | – |
